Source: patent US11773051B2, “S-enantiomers of beta-hydroxybutyrate and butanediol and methods for using same” (Buck Institute for Research on Aging, priority 2017, dated 2023)

What was measured:
[1] = test system: T1, histone deacetylases (HDAC); test: in vitro HDAC assay, commercial assay kit Fluor de Lys Green from Enzo; assay type: biochemical; conditions: sodium salt
T1 construct: other: sodium salt; same assay as S-BHB
Protocol: (§1) The activity of S-BHB and R-BHB enantiomers in inhibiting histone deacetylases was tested.
(§2) This is an in vitro HDAC assay performed using the sodium salt of S-BHB and R-BHB with a commercial assay kit, Fluor de Lys Green from Enzo.
(§3) Without being bound to a particular theory, it is believed the R-BHB might be being metabolized more rapidly than the S-BHB resulting in the diminished maximum inhibition.

[2] = test system: histone deacetylases (HDAC); test: as above; assay type: biochemical; conditions: comparison with literature value
Protocol: as §1, §2, §3

| Structure (SMILES) | maximum inhibition of HDAC activity ([1]; same assay as S-BHB, partial inhibition) | potency for HDAC inhibition relative to potency of R-BHB in a different, previously published assay (Shimazu et al. 2013) [2] [fold] | inhibition of deacetylase activity (result in words) ([1]; FIG. 2) | IC50 ([1]; FIG. 2, read-out: HDAC activity inhibition IC50) [mM] |
| --- | --- | --- | --- | --- |
| C[C@@H](O)CC(=O)O [R-BHB, reference compound] | about 50% |  |  |  |
| C[C@H](O)CC(=O)O [S-BHB, S-beta-hydroxybutyrate] |  | ≤ 2 | dose-dependent inhibition | 7.3 |
